According to US4160783A, “4-Dedimethylamino-4-arylsulfonamido-5a,6-anhydrotetracyclines” (PLIVA Pharmaceutical and Chemical Works, priority 1976, dated 1979):

test system: Micrococcus flavus ATCC 10240, Sarcina lutea ATCC 9341 and Staph. epidermidis ATCC 12228; test: antibacterial activity compared with tetracycline, statement for three organisms; type: cell-based; conditions: strongest activity against M. flavus ATCC 10240, Sarcina lutea ATCC 9341, Staph. epidermidis ATCC 12228

Row | Compound | activity relative to that of tetracycline
1 | Cc1ccc(S(=O)(=O)NC2C(O)=C(C(N)=O)C(=O)C3(O)C(=O)c4c(c(C)c5cccc(O)c5c4O)CC23)cc1 (stereo not shown) [Compound 2, 4-p-toluene-sulfonamido-5a,6-anhydrotetracycline] | considerably superior or equal to that of tetracycline
2 | Cc1c2c(c(O)c3c(O)cccc13)C(=O)C1(O)C(=O)C(C(N)=O)=C(O)C(NS(=O)(=O)c3ccc(F)cc3)C1C2 (stereo not shown) [Compound 3, 4-p-fluorbenzenesulfonamido-5a,6-anhydrotetracycline] | considerably superior or equal to that of tetracycline
3 | CCc1ccc(S(=O)(=O)NC2C(O)=C(C(N)=O)C(=O)C3(O)C(=O)c4c(c(C)c5cccc(O)c5c4O)CC23)cc1 (stereo not shown) [Compound 6, 4-p-ethylbenzenesulfonamido-5a,6-anhydrotetracycline] | considerably superior or equal to that of tetracycline
4 | Cc1c2c(c(O)c3c(O)cccc13)C(=O)C1(O)C(=O)C(C(N)=O)=C(O)C(NS(=O)(=O)c3ccc(Br)cc3)C1C2 (stereo not shown) [Compound 4, 4-p-bromobenzenesulfonamido-5a,6-anhydrotetracycline] | considerably superior or equal to that of tetracycline
